According to patent US9382188B2, “Aromatic ring compound” (TAKEDA PHARMACEUTICAL COMPANY LIMITED, priority 2012, dated 2016):

Molecular target: T1, human GPR40 (Homo sapiens, UniProt O14842)
T1 construct: expressed in transfected cells
Test: Evaluation of human GPR40 agonist activity with increase in intracellular Ca2+ concentration as an index (FLIPR Tetra)
Assay type: cell-based
Settings: test compound 1 μM; CHO(dhfr-) cells stably expressing human GPR40; 100% = activity of 1 μM WO2009/048527 Example 99.2, 0% = DMSO
Procedure: Evaluation of human GPR40 agonist activity with increase in intracellular Ca^2+ concentration as an index
CHO(dhfr-) cells that stably expressed human GPR40 were suspended in MEMα (Nikken Bio Medical Laboratory) containing 10% dialysis serum (GEMINI BIO-PRODUCTS), 10 mM HEPES (Invitrogen), 100 U/mL penicillin, 100 μg/mL streptomycin (Invitrogen), and plated on a 384 well black/clear cell culture plate at 10,000 cells/well. After culture overnight in a CO2 incubator at 37° C., the culture supernatant was removed, and a loading buffer [dye attached to Calcium 5 Assay Kit (Molecular Devices) was dissolved in an assay buffer (20 mM HEPES, 0.2% fatty acid-free BSA (Sigma-Aldrich), 2.5 mM probenecid (DOJINDO)-containing HBSS (Invitrogen)) added with 0.025% Cremophor EL (DOJINDO)] was added at 37.5 μL/well. After incubation in a CO2 incubator at 37° C. for 1 hr, the cells were stood at room temperature for 15 min, an assay buffer containing the test compound at a final concentration of 1 μM was added at 12.5 μL/well in FLIPR Tetra (Molecular Devices), and the fluorescence amount was successively measured. Human GPR40 agonist activity calculated using an increase in the intracellular Ca^2+ concentration as an index, wherein the activity of 1 μM of the compound described in WO 2009/048527 (WO2009/048527 Example 99.2) was 100%, and the activity when DMSO was added instead of the test compound was 0%.

T1 sequence (O14842 whole entry): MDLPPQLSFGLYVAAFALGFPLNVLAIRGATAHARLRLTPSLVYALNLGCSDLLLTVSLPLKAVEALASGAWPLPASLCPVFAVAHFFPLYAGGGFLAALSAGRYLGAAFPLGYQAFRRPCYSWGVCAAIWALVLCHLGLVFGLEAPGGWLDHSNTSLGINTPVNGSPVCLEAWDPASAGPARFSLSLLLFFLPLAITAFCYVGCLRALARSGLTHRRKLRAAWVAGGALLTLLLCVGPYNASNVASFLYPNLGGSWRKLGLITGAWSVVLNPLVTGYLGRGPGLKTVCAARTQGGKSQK

Row | Compound | activation at 1 µM [%]
1 | CC(C)Oc1ccc(F)c(-c2ncc(OCc3cccc(C(CC(=O)O)C4CC4)c3)cc2CC(C)(C)C)c1 (stereo not drawn) [Example 69, 3-cyclopropyl-3-(3-(((5-(2,2-dimethylpropyl)-6-(2-fluoro-5-isopropoxyphenyl)pyridin-3-yl)oxy)methyl)phenyl)propanoic acid] | 61
2 | CC(C)(C)Cc1cc(OCc2cccc(C(CC(=O)O)C3CC3)c2)cnc1-c1cc(OCC(F)(F)F)ccc1F (stereo not drawn) [Example 70, 3-cyclopropyl-3-(3-(((5-(2,2-dimethylpropyl)-6-(2-fluoro-5-(2,2,2-trifluoroethoxy)phenyl)pyridin-3-yl)oxy)methyl)phenyl)propanoic acid] | -8
3 | CCCCCOc1ccc(F)c(-c2ncc(OCc3cccc(C(CC(=O)O)C4CC4)c3)cc2CC(C)(C)C)c1 (stereo not drawn) [Example 71, 3-cyclopropyl-3-(3-(((5-(2,2-dimethylpropyl)-6-(2-fluoro-5-(pentyloxy)phenyl)pyridin-3-yl)oxy)methyl)phenyl)propanoic acid] | 1
4 | COCCCOc1ccc(F)c(-c2ncc(OCc3cccc(C(CC(=O)O)C4CC4)c3)cc2CC(C)(C)C)c1 (stereo not drawn) [Example 72, 3-cyclopropyl-3-(3-(((5-(2,2-dimethylpropyl)-6-(2-fluoro-5-(3-methoxypropoxy)phenyl)pyridin-3-yl)oxy)methyl)phenyl)propanoic acid] | 1
5 | CC(C)(C)Cc1cc(OCc2cccc(C(CC(=O)O)C3CC3)c2)cnc1-c1cc(O)ccc1F (stereo not drawn) [Example 73, 3-cyclopropyl-3-(3-(((5-(2,2-dimethylpropyl)-6-(2-fluoro-5-hydroxyphenyl)pyridin-3-yl)oxy)methyl)phenyl)propanoic acid] | 123
6 | COc1ccc(F)c(-c2ccc(OCc3cccc(C(CC(=O)O)C4CC4)c3)cc2OC(C)(C)C)c1 (stereo not drawn) [Example 74, 3-(3-(((2-tert-butoxy-2′-fluoro-5′-methoxybiphenyl-4-yl)oxy)methyl)phenyl)-3-cyclopropylpropanoic acid] | 104
7 | COc1ccc(F)c(-c2ccc(OCc3cccc(C(CC(=O)O)C4CC4)c3)cc2-c2nnc(C(F)(F)F)s2)c1 (stereo not drawn) [Example 75, 3-cyclopropyl-3-(3-(((2′-fluoro-5′-methoxy-2-(5-(trifluoromethyl)-1,3,4-thiadiazol-2-yl)-[1,1′-biphenyl]-4-yl)oxy)methyl)phenyl)propanoic acid] | 91
8 | CC#CC(CC(=O)O)c1cccc(COc2ccc(-c3cc(OC)ccc3F)c(CC(C)(C)C)c2)c1 (stereo not drawn) [Example 76, 3-(3-(((2′-fluoro-5′-methoxy-2-neopentyl-[1,1′-biphenyl]-4-yl)oxy)methyl)phenyl)hex-4-ynoic acid] | 95

Other lines, results leading:

Row | activation at 1 µM [%] | Compound
9 | 101 | COc1ccc(F)c(-c2ccc(OCc3cccc(C(C#CC4CC4)CC(=O)O)c3)cc2CC(C)(C)C)c1 (stereo not drawn) [Example 77, 5-cyclopropyl-3-(3-(((2′-fluoro-5′-methoxy-2-neopentyl-[1,1′-biphenyl]-4-yl)oxy)methyl)phenyl)pent-4-ynoic acid]
10 | 118 | COc1ccc(F)c(-c2ccc(OCc3cccc(C(CC(=O)O)C(C)C)c3)cc2CC(C)(C)C)c1 (stereo not drawn) [Example 78, 3-(3-(((2′-fluoro-5′-methoxy-2-neopentyl-[1,1′-biphenyl]-4-yl)oxy)methyl)phenyl)-4-methylpentanoic acid]
11 | 134 | C=CC(CC(=O)O)c1cccc(COc2ccc(-c3cc(OC)ccc3F)c(CC(C)(C)C)c2)c1 (stereo not drawn) [Example 79, 3-(3-(((2′-fluoro-5′-methoxy-2-neopentyl-[1,1′-biphenyl]-4-yl)oxy)methyl)phenyl)pent-4-enoic acid]
12 | 94 | CCC(CC(=O)O)c1cccc(COc2ccc(-c3cc(OC)ccc3F)c(CC(C)(C)C)c2)c1 (stereo not drawn) [Example 80, 3-(3-(((2′-fluoro-5′-methoxy-2-neopentyl-[1,1′-biphenyl]-4-yl)oxy)methyl)phenyl)pentanoic acid]
